# Measured values published in ChEMBL document CHEMBL1201862, “PubChem BioAssay data set” (2004).
# The source made the active and inactive calls. Unless noted, the calls are words filed in the database; no cut-off is given here.
# Assays:
# Hexokinase HKDC1 = biological target: T1, Hexokinase HKDC1 (Homo sapiens, UniProt Q2TB90); assay: SAR analysis of small molecule inhibitors of hexokinase domain containing I (HKDC1). [Related pubchem assays (depositor defined):AID493160, AID493190]; assay type: functional
# T1 sequence (Q2TB90 whole entry): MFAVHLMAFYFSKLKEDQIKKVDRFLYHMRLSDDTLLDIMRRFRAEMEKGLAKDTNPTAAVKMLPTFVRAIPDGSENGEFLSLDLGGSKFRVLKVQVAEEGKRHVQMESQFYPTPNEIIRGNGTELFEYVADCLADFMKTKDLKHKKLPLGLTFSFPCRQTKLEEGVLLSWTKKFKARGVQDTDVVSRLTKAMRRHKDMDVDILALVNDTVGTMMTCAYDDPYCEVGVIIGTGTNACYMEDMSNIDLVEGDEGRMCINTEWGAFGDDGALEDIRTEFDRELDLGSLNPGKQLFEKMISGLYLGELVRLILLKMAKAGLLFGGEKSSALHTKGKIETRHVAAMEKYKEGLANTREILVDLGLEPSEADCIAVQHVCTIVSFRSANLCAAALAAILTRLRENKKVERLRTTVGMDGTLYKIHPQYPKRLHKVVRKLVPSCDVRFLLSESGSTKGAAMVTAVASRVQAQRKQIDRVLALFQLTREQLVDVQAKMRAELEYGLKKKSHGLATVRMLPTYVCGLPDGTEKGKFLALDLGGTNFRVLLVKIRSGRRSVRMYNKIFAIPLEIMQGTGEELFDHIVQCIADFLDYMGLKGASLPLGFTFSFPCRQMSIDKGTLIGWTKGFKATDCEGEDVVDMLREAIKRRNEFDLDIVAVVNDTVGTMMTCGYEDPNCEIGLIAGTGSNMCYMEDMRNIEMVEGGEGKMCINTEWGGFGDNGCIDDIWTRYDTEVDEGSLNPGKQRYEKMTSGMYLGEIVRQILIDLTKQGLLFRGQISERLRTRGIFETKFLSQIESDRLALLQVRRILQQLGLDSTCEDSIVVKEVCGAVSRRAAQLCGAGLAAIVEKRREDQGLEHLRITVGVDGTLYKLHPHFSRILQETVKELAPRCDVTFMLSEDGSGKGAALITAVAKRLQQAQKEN
# Hexokinase-1 = Hexokinase-1 (Homo sapiens, UniProt P19367); assay: SAR analysis of small molecule inhibitors of hexokinase domain containing I (HKDC1) in the hexokinase 1 selectivity assay. [Related pubchem assays (depositor defined):AID493160, AID493190]; assay type: functional
# Hexokinase-1, sequence (P19367 whole entry, the tested form may be a part): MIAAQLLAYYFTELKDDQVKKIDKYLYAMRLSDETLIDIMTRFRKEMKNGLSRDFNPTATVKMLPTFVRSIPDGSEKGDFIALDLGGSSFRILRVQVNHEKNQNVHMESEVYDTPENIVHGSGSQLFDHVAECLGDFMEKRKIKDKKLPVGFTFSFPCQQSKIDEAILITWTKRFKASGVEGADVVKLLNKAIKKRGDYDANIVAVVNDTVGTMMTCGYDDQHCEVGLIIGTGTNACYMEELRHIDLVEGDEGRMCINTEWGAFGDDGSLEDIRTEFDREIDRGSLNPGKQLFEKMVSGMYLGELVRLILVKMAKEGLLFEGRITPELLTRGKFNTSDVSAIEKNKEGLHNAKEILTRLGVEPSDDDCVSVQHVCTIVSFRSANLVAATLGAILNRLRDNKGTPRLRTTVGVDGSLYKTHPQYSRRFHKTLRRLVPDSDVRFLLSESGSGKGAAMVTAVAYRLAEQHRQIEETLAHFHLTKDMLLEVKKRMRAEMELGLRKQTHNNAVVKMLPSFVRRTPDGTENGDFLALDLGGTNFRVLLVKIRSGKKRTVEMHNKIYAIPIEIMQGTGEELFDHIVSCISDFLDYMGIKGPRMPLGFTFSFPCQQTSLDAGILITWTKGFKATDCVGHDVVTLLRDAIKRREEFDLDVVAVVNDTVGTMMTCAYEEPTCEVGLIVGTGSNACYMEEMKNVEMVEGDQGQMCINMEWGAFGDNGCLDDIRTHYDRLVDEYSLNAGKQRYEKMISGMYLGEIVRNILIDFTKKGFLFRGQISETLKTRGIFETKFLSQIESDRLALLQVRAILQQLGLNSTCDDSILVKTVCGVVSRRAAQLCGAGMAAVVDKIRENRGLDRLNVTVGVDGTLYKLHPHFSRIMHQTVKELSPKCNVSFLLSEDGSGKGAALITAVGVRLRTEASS
# H4 [1] = assay: Inhibitors of Prion Protein 5' UTR mRNA Measured in Cell-Based System Using Plate Reader - 2078-01_Inhibitor_Dose_DryPowder_Activity. [Related pubchem assays (depositor defined):AID488894]; assay type: functional; conditions: Homo sapiens
# H4 [2] = assay: inhibitors of control reporter signal in H4 cells – cell-based, plate reader, dry powder samples, counter-screen for prion reporter project, dose response (AID 540255); assay type: functional; conditions: Homo sapiens
# [3] = biological target: Luciferin 4-monooxygenase (Photinus pyralis, UniProt P08659); assay: firefly luciferase enzyme inhibitors, dose response, biochemical, dry powder samples, plate reader (AID 588451)
# Luciferin 4-monooxygenase, sequence (P08659 whole entry): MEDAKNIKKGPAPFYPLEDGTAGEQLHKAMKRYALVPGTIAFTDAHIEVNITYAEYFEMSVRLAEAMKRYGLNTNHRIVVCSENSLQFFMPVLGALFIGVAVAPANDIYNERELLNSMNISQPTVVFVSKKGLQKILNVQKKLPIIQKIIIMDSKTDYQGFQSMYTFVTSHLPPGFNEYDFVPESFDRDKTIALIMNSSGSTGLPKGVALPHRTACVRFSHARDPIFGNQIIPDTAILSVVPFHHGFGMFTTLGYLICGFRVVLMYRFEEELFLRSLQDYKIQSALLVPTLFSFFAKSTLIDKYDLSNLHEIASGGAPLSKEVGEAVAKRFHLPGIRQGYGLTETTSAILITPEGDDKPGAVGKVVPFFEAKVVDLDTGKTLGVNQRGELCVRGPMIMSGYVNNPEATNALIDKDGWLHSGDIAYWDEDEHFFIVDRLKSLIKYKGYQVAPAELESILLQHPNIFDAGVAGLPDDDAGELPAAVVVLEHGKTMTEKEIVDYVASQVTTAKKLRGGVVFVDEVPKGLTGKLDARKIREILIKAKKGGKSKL
# H4 [4] = assay: Amyloid Precursor 5' UTR neuroblastoma cell reporter line Measured in Cell-Based System Using Plate Reader - 2078-04_Inhibitor_Dose_DryPowder_Activity. [Related pubchem assays (depositor defined):AID488894]; assay type: functional; conditions: Homo sapiens
# [5] = biological target: T2, Short transient receptor potential channel 4 (Mus musculus, UniProt Q9QUQ5); assay: TRPC4 inhibitor concentration-response, dose response, cell-based, HEK293 TRPC4/mu-opioid, DAMGO stimulus, Fluo-4 (AID 492994); assay type: functional
# T2 sequence (Q9QUQ5 whole entry): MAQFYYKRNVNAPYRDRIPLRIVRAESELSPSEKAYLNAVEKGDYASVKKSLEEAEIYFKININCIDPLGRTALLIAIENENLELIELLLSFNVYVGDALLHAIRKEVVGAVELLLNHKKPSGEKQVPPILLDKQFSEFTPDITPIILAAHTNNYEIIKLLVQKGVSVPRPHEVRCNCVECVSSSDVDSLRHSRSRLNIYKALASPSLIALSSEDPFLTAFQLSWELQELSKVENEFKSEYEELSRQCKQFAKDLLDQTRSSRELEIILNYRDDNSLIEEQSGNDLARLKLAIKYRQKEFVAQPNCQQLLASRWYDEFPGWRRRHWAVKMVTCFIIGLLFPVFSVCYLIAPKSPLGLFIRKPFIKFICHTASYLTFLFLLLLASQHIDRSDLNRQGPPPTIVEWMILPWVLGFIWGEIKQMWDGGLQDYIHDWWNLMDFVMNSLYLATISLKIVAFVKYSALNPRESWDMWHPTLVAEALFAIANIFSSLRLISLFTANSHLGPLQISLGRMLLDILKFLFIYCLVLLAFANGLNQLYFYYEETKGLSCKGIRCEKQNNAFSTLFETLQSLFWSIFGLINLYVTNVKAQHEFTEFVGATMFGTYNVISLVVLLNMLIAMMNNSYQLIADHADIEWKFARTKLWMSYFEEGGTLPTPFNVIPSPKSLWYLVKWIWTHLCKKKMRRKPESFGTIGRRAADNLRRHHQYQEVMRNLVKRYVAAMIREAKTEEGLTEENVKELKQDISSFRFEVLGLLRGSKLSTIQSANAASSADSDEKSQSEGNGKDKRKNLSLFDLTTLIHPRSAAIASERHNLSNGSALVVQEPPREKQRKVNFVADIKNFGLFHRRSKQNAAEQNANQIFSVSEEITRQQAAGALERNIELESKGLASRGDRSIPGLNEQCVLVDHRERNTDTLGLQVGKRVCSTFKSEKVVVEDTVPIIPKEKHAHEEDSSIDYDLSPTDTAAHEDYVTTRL
# [6] = biological target: Short transient receptor potential channel 6 (Mus musculus, UniProt Q61143); assay: TRPC6 inhibition potency of TRPC4 inhibitor analogs, dose response, selectivity assay for selective TRPC4 inhibitor project, HEK293 cells, membrane potential dye, IC50 (AID 492987); assay type: functional, cell-based
# Short transient receptor potential channel 6, sequence (Q61143 whole entry): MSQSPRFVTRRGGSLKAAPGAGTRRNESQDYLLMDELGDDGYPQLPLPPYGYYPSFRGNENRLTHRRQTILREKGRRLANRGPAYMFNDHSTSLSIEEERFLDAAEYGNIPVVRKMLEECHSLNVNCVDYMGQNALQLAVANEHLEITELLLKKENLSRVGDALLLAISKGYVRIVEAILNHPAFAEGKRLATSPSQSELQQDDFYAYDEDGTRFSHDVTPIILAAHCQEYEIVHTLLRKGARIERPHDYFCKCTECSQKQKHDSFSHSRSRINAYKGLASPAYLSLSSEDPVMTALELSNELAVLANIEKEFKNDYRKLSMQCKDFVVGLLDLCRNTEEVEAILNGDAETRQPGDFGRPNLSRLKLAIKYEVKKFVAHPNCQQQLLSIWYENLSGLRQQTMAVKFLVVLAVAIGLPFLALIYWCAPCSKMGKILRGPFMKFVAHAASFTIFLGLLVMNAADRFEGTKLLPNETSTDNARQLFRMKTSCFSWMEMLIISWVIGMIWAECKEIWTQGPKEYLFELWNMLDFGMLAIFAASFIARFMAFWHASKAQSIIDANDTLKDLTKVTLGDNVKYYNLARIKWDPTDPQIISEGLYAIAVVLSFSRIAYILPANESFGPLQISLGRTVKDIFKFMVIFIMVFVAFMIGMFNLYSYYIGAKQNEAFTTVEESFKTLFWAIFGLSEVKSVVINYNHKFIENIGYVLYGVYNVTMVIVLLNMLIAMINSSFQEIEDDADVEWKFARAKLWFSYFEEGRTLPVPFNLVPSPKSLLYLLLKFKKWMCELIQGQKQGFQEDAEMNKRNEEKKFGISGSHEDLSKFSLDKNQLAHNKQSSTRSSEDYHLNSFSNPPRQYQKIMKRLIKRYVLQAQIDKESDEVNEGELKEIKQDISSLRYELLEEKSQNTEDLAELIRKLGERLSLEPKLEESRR
# [7] = biological target: T2, Short transient receptor potential channel 4; assay: SAR Analysis for the identification of selective inhibits of the transient receptor potential cation channel C4 (TRPC4): Automated Electrophysiology_2. [Related pubchem assays (depositor defined):AID2256]; assay type: functional
# [8] = biological target: T2, Short transient receptor potential channel 4; assay: TRPC4 inhibition under acetylcholine activation, SAR follow-up, cell-based, acetylcholine stimulus, HEK293 TRPC4, Fluo-4 (AID 492996); assay type: functional
# Cysteine protease ATG4B = Cysteine protease ATG4B (Homo sapiens, UniProt Q9Y4P1); assay type: functional;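 further: Fluorescence-based dose-response confirmation assay measuring inhibition of ATG4B activity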
# Cysteine protease ATG4B, sequence (Q9Y4P1 whole entry): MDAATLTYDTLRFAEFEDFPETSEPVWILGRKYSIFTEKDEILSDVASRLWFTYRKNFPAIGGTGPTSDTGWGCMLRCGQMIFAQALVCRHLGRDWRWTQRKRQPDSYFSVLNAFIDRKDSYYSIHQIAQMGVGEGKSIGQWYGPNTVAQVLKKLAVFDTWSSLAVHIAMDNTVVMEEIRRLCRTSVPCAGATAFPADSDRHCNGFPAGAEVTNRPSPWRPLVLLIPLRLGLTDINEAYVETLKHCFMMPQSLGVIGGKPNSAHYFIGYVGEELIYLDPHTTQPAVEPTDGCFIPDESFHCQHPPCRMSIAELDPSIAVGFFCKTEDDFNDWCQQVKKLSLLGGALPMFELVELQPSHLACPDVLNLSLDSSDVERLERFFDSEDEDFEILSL
# Phospholipase A2 = Phospholipase A2 (Homo sapiens, UniProt P04054); assay type: functional;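 further: confirmatory dose-response counterscreen on phospholipase A2, testing hits that came from an ultra-high-throughput screen for ATG4B inhibitors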
# Phospholipase A2, sequence (P04054 whole entry): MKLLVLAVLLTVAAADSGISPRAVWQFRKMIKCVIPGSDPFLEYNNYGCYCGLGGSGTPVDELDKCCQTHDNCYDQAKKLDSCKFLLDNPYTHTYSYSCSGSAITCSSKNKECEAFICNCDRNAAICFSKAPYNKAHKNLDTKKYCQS
structure (smiles),measurement,setting,value
Cc1ccc(S(=O)(=O)Nc2cc(SCC(=O)O)c(O)c3ccccc23)cc1[N+](=O)[O-],IC50,Hexokinase HKDC1,11.4 µM (active)
same,IC50,Hexokinase-1,59.8 µM (inactive)
CC1CCCCN1c1ncnc2c1cnn2-c1ccc(Cl)cc1 (configuration not stated),AC50,H4 [1],0.018 µM (active)
same,AC50,H4 [2],0.074 µM (active)
same,AC50,[3],4.19 µM (active)
same,AC50,H4 [4],0.00838 µM (active)
Cc1cc(N2CCCCCC2)nc2ccccc12,IC50,[5],1.5 µM (active)
same,IC50,[6],9.74 µM (active)
same,IC50,[7],1.96 µM (active)
same,IC50,[8],9.55 µM (active)
O=C(CC1SC(N/N=C/c2cccs2)=NC1=O)Nc1ccc(Cl)c(Cl)c1 (configuration not stated),IC50,Cysteine protease ATG4B,13.8 µM (active)
same,IC50,Phospholipase A2,4.25 µM (active)
